Where two headings read alike, the source gives them in different places.
Columns and labels:
Format in all cases: cell-based
[1] = tested on: P493-6 (myc “on”) cells; test: Cell Proliferation Assay; settings: read-out: Cell prolif P493 72 h IC50
Experimental: P493-6 (myc “on”) cells were maintained in growth media (RPMI-1640, 10% FBS, 2 mM glutamine, 100 units/ml Penicillin and 100 μg/ml streptomycin) at 37° C. with 5% CO2. For compound assay, P493-6 cells were plated in 96-well V-bottom plates on the day of compound addition in 50 μl of growth media at a cell density of 200,000 cells/ml (10,000 cells/well). Compounds were serially diluted in 100% DMSO at 200-times the final concentration. Compounds were diluted 100-fold into growth media and then 50 μl of this mixture was added to cell plates making the final concentration of DMSO 0.5%. Cells were incubated with compound for 72 hrs at 37° C. with 5% CO2 and analyzed for antiproliferative effects either by Cell Titer Glo (Promega) or FACS analysis using the Viacount (Millipore) kit on the Guava instrument.

[2] = tested on: multiple myeloma cell lines; test: Co-administration, cell viability (Cell Titer Glo), multiple myeloma
Experimental: (§1) Cells were treated with a dose titration of either CB-839, an anti-cancer agent or a mixture thereof for 72 hours in growth media. At the end of the incubation, cell viability was measured using Cell Titer Glo as per manufacturer's protocol (Promega, Madison, Wis.). Cell proliferation for all compound treatments are represented as bar graphs, where luminescent output, Relative Light Units (RLU), correlates with viable cell number. Combination indices were calculated using the Calcusyn program (biosoft.com) and reported for individual mixtures of CB-839 and each agent.

[3] = tested on: triple negative breast cancer cell lines; test: Co-administration, cell viability (Cell Titer Glo), triple negative breast cancer
Experimental: as §1

[4] = tested on: lung cancer cell lines; test: Co-administration, cell viability (Cell Titer Glo), lung cancer
Experimental: as §1

[5] = tested on: renal cell carcinoma cell lines; test: Co-administration, cell viability (Cell Titer Glo), renal cell carcinoma
Experimental: as §1

[6] = tested on: renal clear cell carcinoma cells; test: Co-administration, cell viability, renal clear cell carcinoma (FIG. 25); settings: combination with everolimus
Experimental: as §1

[7] = tested on: H1650 NSCLC cell lines; test: Co-administration, cell viability, NSCLC (FIG. 26)
Experimental: as §1

[2H]C([2H])(CCc1nnc(NC(=O)Cc2ccccn2)s1)C([2H])([2H])c1ccc(NC(=O)Cc2cccc(OC(F)(F)F)c2)nn1 [Compound 727]
IC50 ([1]; 72 h): 12 nM

O=C(Cc1cccc(OC(F)(F)F)c1)Nc1ccc(CCCCc2nnc(NC(=O)Cc3ccccn3)s2)nn1 [CB-839]
interaction of CB-839 with vincristine ([2]; FIG. 1, combination with vincristine, 72 hours): synergy
interaction of CB-839 with AKT inhibitor MK2206 ([2]; FIG. 2, combination with MK2206, 72 hours): strong synergy
interaction of CB-839 with mTOR inhibitor everolimus ([2]; FIG. 3, combination with everolimus, 72 hours): strong synergy
interaction of CB-839 with MEK inhibitor trametinib ([2]; FIG. 4, combination with trametinib, 72 hours): strong synergy
interaction of CB-839 with RTK inhibitor sorafenib ([2]; FIG. 5, combination with sorafenib, 72 hours): strong synergy
interaction of CB-839 with carboplatin ([3]; FIG. 6, combination with carboplatin, 72 hours): therapeutic interaction
interaction of CB-839 with cytidine analog gemcitabine ([3]; FIG. 7, combination with gemcitabine, 72 hours): additive effect
interaction of CB-839 with doxorubicin ([3]; FIG. 8, combination with doxorubicin, 72 hours): therapeutic interaction
interaction of CB-839 with mTOR inhibitor everolimus ([3]; FIG. 9, combination with everolimus, 72 hours): synergy
interaction of CB-839 with AKT inhibitor MK2206 ([3]; FIG. 10, combination with MK2206, 72 hours): synergy
interaction of CB-839 with EGFR inhibitor erlotinib ([4]; FIG. 11, combination with erlotinib, 72 hours): synergy
interaction of CB-839 with MEK inhibitor trametinib ([4]; FIG. 12, combination with trametinib, 72 hours): synergy
interaction of CB-839 with mTOR inhibitor everolimus ([4]; FIG. 13, combination with everolimus, 72 hours): synergy
interaction of CB-839 with mTOR inhibitor temsirolimus ([4]; FIG. 14, combination with temsirolimus, 72 hours): synergy
interaction of CB-839 with AKT inhibitor MK2206 ([4]; FIG. 15, combination with MK2206, 72 hours): synergy
interaction of CB-839 with PI3K/mTOR inhibitor BEZ235 ([4]; FIG. 16, combination with BEZ235, 72 hours): synergy
interaction of CB-839 with RTK inhibitor sorafenib ([5]; FIG. 17, combination with sorafenib, 72 hours): synergy
interaction of CB-839 with C-kit and pan-RTK inhibitor sunitinib ([5]; FIG. 18, combination with sunitinib, 72 hours): synergy
interaction of CB-839 with pan-RTK inhibitor pazopanib ([5]; FIG. 19, combination with pazopanib, 72 hours): synergy
interaction of CB-839 with mTOR inhibitor everolimus ([5]; FIG. 20, combination with everolimus, 72 hours): synergy
interaction of CB-839 with mTOR inhibitor temsirolimus ([5]; FIG. 21, combination with temsirolimus, 72 hours): synergy
interaction of CB-839 with MEK inhibitor trametinib ([5]; FIG. 22, combination with trametinib, 72 hours): synergy
interaction of CB-839 with AKT inhibitor MK2206 ([5]; FIG. 23, combination with MK2206, 72 hours): synergy
interaction of CB-839 with PI3K/mTOR inhibitor BEZ235 ([5]; FIG. 24, combination with BEZ235, 72 hours): therapeutic interaction
effect of the combination of CB-839 and everolimus [6]: synergistic antiproliferative activity
effect of the combination of CB-839 and erlotinib ([7]; combination with erlotinib, erlotinib-resistant model): enhances the anti-tumor effects of each individual compound

[2H]C([2H])(CCc1nnc(N)s1)C([2H])([2H])c1ccc(NC(=O)Cc2cccc(OC(F)(F)F)c2)nn1 [Compound 726]
IC50 ([1]; P493-6, 72 h): 610 nM

C#Cc1cccc(Nc2ncnc3cc(OCCOC)c(OCCOC)cc23)c1 [erlotinib, reference compound]
sensitivity of the cells to erlotinib ([7]; erlotinib alone): resistant

From patent publication US9687485B2, “Combination therapy with glutaminase inhibitors” (Calithera Biosciences, Inc., priority 2014, dated 2017)
